Drawing on patent US10052293B2, “Curcumin infused milk beverage and a process for the preparation thereof” (priority 2016, dated 2018), this text covers water solubility and pH for one compound.

Data set [1] in a line: Water solubility of Curcumin. In kind it is physicochemical. Conditions: 95% pure Curcumin. The protocol: The particle size of the Curcumin is about 125 micrometers and 95% of Curcumin can pass through 125 micrometers sieve and rest 5% is larger than 125 micrometers. In the final product, the Curcumin concentration is kept at a low concentration of 0.05% (wt/wt percentage for a batch). The concentration of Curcumin can go up to 0.15%. (wt/wt percentage for a batch) for particular milk beverage products. Thus, in an exemplary situation a 160 ml package of this milk beverage has approximately 80 mg of Curcumin and which can go up to 240 mg as required for ingestion.

Data set [2] is described as follows: pH of Curcumin dissolved in water. Format: physicochemical. The protocol: The prior art as described in above paragraphs clearly points that Curcumin is unstable in an alkaline solution and loses its golden yellow colour above a pH of 7.5. When pure Curcumin (95%) is dissolved in water, it gives a pH of 6.1. Even at a concentration of 30% solution of Curcumin, prepared by 30 gms of Curcumin in 70 gm hot water, kept in water bath at 55 degrees Celsius for 10 minutes and cooled to 25 degrees Celsius, it has an acidic pH. This Acidic pH of Curcumin is not suitable for making flavoured milk products. Any ingredient having pH less than 6.4 adversely affect milk proteins. The present invention solves this problem by optimizing the exact pH of Curcumin infused milk beverage so that the properties of beverage are preserved and good dispersibility and stability of Curcumin is obtained in the final composition.

Each structure is given as a SMILES string.

As to `COc1cc(/C=C/C(=O)CC(=O)/C=C/c2ccc(O)c(OC)c2)ccc1O` [Curcumin, diferuloylmethane], the water solubility result in data set [1] is given as “water insoluble”. The pH result in data set [2] (30% solution: 30 gms Curcumin in 70 gm hot water, 55 degrees Celsius 10 minutes, cooled to 25 degrees Celsius) is listed as “acidic pH”; in data set [2] (pure Curcumin (95%) dissolved in water), 6.1.
